Measured values from PubChem BioAssay (NCI).
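Cultured in 96-well plates, cells were exposed to test compound for 48 hours across five concentrations. Abbreviation: GI50, concentration required for 50% inhibition of growth. TGI denotes the concentration required for complete inhibition of growth.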

Assays:
Experiment in all cases: inhibition of tumour cell growth, NCI panel, 48 h
[1] = test system: HOP-62 NSCLC
[2] = test system: HOP-92 NSCLC
[3] = test system: HS 578T breast
[4] = test system: NCI/ADR-RES ovarian
[5] = test system: OVCAR-3 ovarian
[6] = test system: PC-3 prostate
[7] = test system: SNB-19 CNS
[8] = test system: SNB-75 CNS
[9] = test system: SR leukemia
[10] = test system: TK-10 renal

SMILES | GI50 [1] [µM] | TGI [1] [µM] | GI50 [2] [µM] | TGI [2] [µM] | GI50 [3] [µM] | TGI [3] [µM] | GI50 [4] [µM] | TGI [4] [µM] | GI50 [5] [µM] | TGI [5] [µM] | GI50 [6] [µM] | TGI [6] [µM] | GI50 [7] [µM] | TGI [7] [µM] | GI50 [8] [µM] | TGI [8] [µM] | GI50 [9] [µM] | TGI [9] [µM] | GI50 [10] [µM] | TGI [10] [µM]
CCCOC(=O)N[C@H]1CCc2c(Cl)c(OC)c(OC)c(OC)c2-c2ccc(SC)c(=O)cc21 | 0.0101 | 50.9 | < 0.0119 | 4.65 | < 0.01 | 20.6 | 0.0269 | 21.6 | < 0.01 | < 0.01 | < 0.01 | > 100 | < 0.01 | 27.4 | < 0.01 | 14.5 | < 0.01 | 19.2 | 5.04 | > 88.4
O=C(O)CSCCc1ccccc1 |  | > 100 |  | > 100 |  | > 100 |  | > 100 |  | > 100 |  | > 100 |  | > 100 |  | > 100 |  | > 100 |  | > 100
CN(c1ccc(NC(=O)Nc2c(Cl)cccc2Cl)cc1)c1ccnc(Nc2cccc(CS(C)(=O)=O)c2)n1 | 3.71 | 11.9 | 2.88 | 12 | 4.35 | > 17.6 | 5.49 | > 25 | 1.65 | 5.2 | 1.56 | 8.6 | 4.5 | > 25 | 1.69 | 7 | 0.303 | > 25 | 3.98 | 9.02
COc1cc(C2c3cc4c(cc3OC(C)(N3CCCC3)C2C)OCO4)cc(OC)c1OC (stereo not given) |  | 66.8 |  | 33.6 |  | 0.721 |  | 0.522 |  | 0.528 |  | > 100 |  | > 100 |  | 0.65 |  | 9.62 |  | > 67.1
CCOc1cccc(/C=N/NC(=O)c2cccc(Nc3ccnc(C(F)(F)F)c3)c2)c1O | 0.682 | 15.3 | 5.21 | > 100 | 5.53 | 72.7 | 3.02 | 27.8 | 0.401 | 24.4 | 3.28 | > 92.8 | 1.63 | > 100 | 11.2 | 39.2 | 0.212 | 8.67 | 1.57 | 83.1
CNC(=O)OCc1nc(SSC(C)(C)C)n(C)c1COC(=O)NC |  | 31.1 |  | 3.67 |  | 7.9 |  | 20.3 |  | 4.81 |  | 21 |  | 33.9 |  | 22.4 |  | 5.54 |  | 13
CNC(=O)OCc1c(COC(=O)NC)c(-c2ccc(-c3ccccc3)cc2)n(C)c1C |  | 18.8 |  | 11.9 |  | > 68.2 |  | 12.6 |  | 7.88 |  | 12.3 |  | 16.9 |  | 10.6 |  | > 100 |  | 15.4
CN(C)CCC(=O)N1C/C(=C\c2ccc(Cl)c(Cl)c2)C(=O)/C(=C/c2ccc(Cl)c(Cl)c2)C1 |  | 0.941 |  | 0.977 |  | 1.73 |  | 1.06 |  | 0.93 |  | 0.398 |  | 2.13 |  | 1.3 |  | 9.84 |  | 1.58
